# Where two headings read alike, the source gives them in different places.
# Legend:
# [1] = system: surface of the face; conditions: 1-2 ml of 10% solution applied daily to the face, over 14-21 days
# Text: The present invention is based on the realization that the aging process and its physical effects on the skin and body involve the activation of a fibrinolytic process. […] The dosage of antifibrinolytic agent(s) should be less than 6 grams per day. […] A particularly advantageous manner of administration for topical delivery is by single use pre-impregnated towelettes applied to the area of the skin to be treated.
# [2] = system: dark patches of skin; conditions: injected directly into affected area, sometimes with laser therapy, melasma patients; cited from earlier work
# [3] = system: mice that are bred to display skin dryness; conditions: oral, 750 mg/kg/day over 20 days; cited from earlier work
# [4] = cited from earlier work
smiles,measurement,setting,value
NC[C@H]1CC[C@H](C(=O)O)CC1 [tranexamic acid],lines and wrinkles,[1],lines and wrinkles are fewer and less pronounced
same,overall skin tone,[1],improved
same,effect on dark patches of skin,[2],lighten dark patches of skin
same,effect on wrinkles caused by skin dryness,[3],amelioration effect on wrinkles specifically caused by skin dryness
same,dose shown to induce seizures,[4]; equivalent of 80 mg/kg/day,approximately 6 grams per day
same,dose shown to induce seizures,[4]; in vivo,> 80 mg/kg/day

# Reference: US10792232B2, “Methods to deliver antifibrinolytic drugs for anti-aging results” (MURDOCK TECHNOLOGIES, LLC, priority 2016, dated 2020)
